Reference: publication PMC5653977 (EMBO Molecular Medicine, 2017)
Structures can show the parent of a compound that is named as a salt.

Test system: NRG1-ERBB4 signaling
Test: Nrg1-ERBB4-PIK3R1 split TEV co-culture compound screen of the NIH Clinical Collection
Format: cell-based, human
Settings: NIH Clinical Collection NCC-003 raw data; compounds ranked by Z-score; 'flagged' given instead of a Z-score

| SMILES | Z-SCORE |
| --- | --- |
| OCCOCCN1CCN(C2=Nc3ccccc3Sc3ccccc32)CC1 [QUETIAPINE HEMIFUMARATE] | -1.26 |
| COc1ccc(CN2CCN(C(c3ccc(F)cc3)c3ccc(F)cc3)CC2)c(OC)c1OC.Cl.Cl [LOMERIZINE DiHCl] | -1.48 |
| CC(C(=O)O)c1ccc(-c2ccccc2)c(F)c1 (stereo not drawn) [Flurbiprofen, reference compound] | -1.64 |
| O=c1cnn([C@@H]2O[C@H](CO)[C@@H](O)[C@H]2O)c(=O)[nH]1 [6-AZAURIDINE] | -1.32 |
| CC(NC(C)(C)C)C(=O)c1cccc(Cl)c1 (stereo not drawn) [BUPROPION HYDROCHLORIDE] | -2.1 |
| COC(=O)Nc1nc2cc(C(=O)c3ccc(F)cc3)ccc2[nH]1 [FLUBENDAZOLE] | flagged |
| C[C@H]1[C@H](OC(=O)CCC(=O)O)O[C@@H]2O[C@@]3(C)CC[C@H]4[C@H](C)CC[C@@H]1[C@@]24OO3 [ARTESUNATE] | flagged |

Same assay, conditions: compound screen of the NIH Clinical Collection, sheet raw data NCC-003; compounds ranked by Z-score

| SMILES | Z-SCORE |
| --- | --- |
| O=C1c2c(O)cc(O)cc2OC(c2ccc(O)c(O)c2)C1O (racemic) [TAXIFOLIN-(+/-)] | -0.12 |
| N#Cc1ccc(C(c2ccc(C#N)cc2)n2cncn2)cc1 [LETROZOLE] | -1.06 |
| CCCN1CCCC[C@H]1C(=O)Nc1c(C)cccc1C [ROPIVACAINE HCl] | -0.05 |
| Cn1nnc2c(C(N)=O)ncn2c1=O [TEMOZOLOMIDE] | 0.54 |
| CCOc1cc(N)c(Cl)cc1C(=O)NCC1CN(Cc2ccc(F)cc2)CCO1 (stereo not drawn) [MOSAPRIDE CITRATE] | 0.73 |
| Cc1cccc(Nc2ccncc2S(=O)(=O)NC(=O)NC(C)C)c1 [TORASEMIDE] | 0.4 |
| COc1cc2c(cc1OC)C(=O)C(CC1CCN(Cc3ccccc3)CC1)C2 (stereo not drawn) [Donepezil] | 0 |
| NC(=O)N1c2ccccc2CC(=O)c2ccccc21 [Trileptal] | 0.62 |
| CCCCC(=O)N(Cc1ccc(-c2ccccc2-c2nnn[nH]2)cc1)[C@H](C(=O)O)C(C)C | -0.23 |
| Cc1cccc(C)c1NC(=O)C(C)N (stereo not drawn) [TOCAINIDE] | -0.41 |
| CN1CCCCC1CCN1c2ccccc2Sc2ccc([S+](C)[O-])cc21 (stereo not drawn) [Mesoridazine] | -0.53 |
| COC1=C(OC)C(=O)C(CCCCCCCCCCO)=C(C)C1=O [IDEBENONE] | 2.79 |
| CC(O)(CS(=O)(=O)c1ccc(F)cc1)C(=O)Nc1ccc(C#N)c(C(F)(F)F)c1 (stereo not drawn) [BICALUTAMIDE] | 0 |
| CN1CCCC(n2nc(Cc3ccc(Cl)cc3)c3ccccc3c2=O)CC1 (stereo not drawn) [AZELASTINE HCl] | -0.68 |
| O=c1c2ccccc2[se]n1-c1ccccc1 [EBSELEN] | -0.25 |
| NC(=O)OCCCc1ccccc1 [PHENPROBAMATE] | -0.62 |
| c1ccc2c3c([nH]c2c1)CNCC3 [TRYPTOLINE] | 0.19 |
| CN1CCc2cc(Cl)c(O)cc2[C@@H](c2ccccc2)C1.Cl [R(+)-SCH-23390 hydrochloride] | 0.87 |
| CN1CCC(=C2c3ccccc3CCc3sccc32)CC1 [Pizotyline] | -0.22 |
| CC(Cc1ccccc1)(NC(=O)CN)c1ccccc1 (racemic) | 0.97 |
| CN(C)CC/C=C1/c2ccccc2COc2ccc(CC(=O)O)cc21 [OLOPATADINE HCl] | 0.55 |
| Clc1cccc(Cl)c1NC1=NCCN1 | 0.34 |

| SMILES | Z-SCORE |
| --- | --- |
| Cc1ccsc1C(=CCCN1CCC[C@@H](C(=O)O)C1)c1sccc1C [TIAGABINE HCl] | -0.1 |
| C[C@@H]1O[C@@H](OC[C@H]2O[C@@H](Oc3c(-c4ccc(O)c(O)c4)oc4cc(O)cc(O)c4c3=O)[C@H](O)[C@@H](O)[C@@H]2O)[C@H](O)[C@H](O)[C@H]1O [RUTIN] | 0.13 |
| Cc1cccc(CCN2CCC(C(=O)c3ccc(NS(C)(=O)=O)cc3)CC2)n1.Cl.Cl | -0.17 |
| CN(CCOc1ccc(NS(C)(=O)=O)cc1)CCc1ccc(NS(C)(=O)=O)cc1 [DOFETILIDE] | 0 |
| COc1ccc2[nH]cc(C3=CCNCC3)c2c1 [RU 24969] | 0.79 |
| CN(CCCN1c2ccccc2CCc2ccccc21)CC(=O)c1ccc(Cl)cc1 [LOFEPRAMINE] | -0.53 |
| O=C(O)CCc1nc(-c2ccccc2)c(-c2ccccc2)o1 [OXAPROZIN] | 0.6 |
| Nc1nc(Cl)nc2c1ncn2[C@@H]1O[C@H](CO)[C@@H](O)[C@H]1O [2-CHLOROADENOSINE] | 0.61 |
| CCOC(=O)C1(c2ccccc2)CCN(CCC(C#N)(c2ccccc2)c2ccccc2)CC1 [DIPHENOXYLATE] | -0.45 |
| O=C1Nc2ccc(Cl)cc2C(c2ccccc2Cl)=NC1O (stereo not drawn) [Lorazepam] | 0.53 |
| COCC1=C(C(=O)OC(C)OC(=O)OC(C)C)N2C(=O)[C@@H](NC(=O)/C(=N\OC)c3csc(N)n3)[C@H]2SC1 (stereo partly drawn) [CEFPODOXIME PROXETIL] | 0.53 |
| COc1nc(C)nc(Cl)c1NC1=NCCN1.Cl [MOXONIDINE HCl] | 0.68 |
| CO[C@@H]1[C@@H](O[C@@H]2O[C@H](C)[C@@H](O[C@H]3C[C@@](C)(O)[C@@H](OC(=O)CC(C)C)[C@H](C)O3)[C@H](N(C)C)[C@H]2O)[C@@H](CC=O)C[C@@H](C)[C@@H](O)/C=C/C=C/C[C@@H](C)OC(=O)C[C@H]1O [KITASAMYCIN] | 1.6 |
| c1cnc(N2CCN(Cc3ccc4c(c3)OCO4)CC2)nc1 [Piribedil] | 1.22 |
| CCN(CC)CCOC(=O)C(O)(c1ccccc1)c1ccccc1 [BENACTYZINE HYDROCHLORIDE] | 2.48 |
| CN1CCN2c3ncccc3Cc3ccccc3C2C1 (stereo not drawn) [mirtazapine, reference compound] | -0.36 |
| COc1cc(CNC(=O)CCCC/C=C/C(C)C)ccc1O [Capsaicin] | -0.46 |
| COc1ccc2c(c1)c(CC(=O)O)c(C)n2C(=O)c1ccc(Cl)cc1 [Indomethacin] | 0.08 |
| COc1cc(C[C@@H](CO)[C@H](CO)Cc2ccc(O)c(OC)c2)ccc1O [SECOISOLARICIRESINOL] | -0.17 |
| Clc1ccc2c(c1)CCc1cccnc1C2=C1CCNCC1 | 0.4 |
| C[N+]1(C)CCN(c2ccccc2)CC1.[I-] [1,1-DIMETHYL-4-PHENYLPIPERAZINIUM IODIDE] | 2.45 |
| Cc1c(O)cccc1C(=O)N[C@@H](CSc1ccccc1)[C@H](O)CN1C[C@H]2CCCC[C@H]2C[C@H]1C(=O)NC(C)(C)C [NELFINAVIR MESYLATE] | 0.24 |

Same assay, conditions: compounds at 10 μM, 24 h; PC12 split TEV assay cells co-cultured with Nrg1-expressing PC12 cells; analysed with cellHTS2

| SMILES | Z-SCORE |
| --- | --- |
| CC(=O)OCC(=O)[C@@]1(O)CC[C@H]2[C@@H]3C[C@H](C)C4=CC(=O)C=C[C@]4(C)[C@H]3[C@@H](O)C[C@@]21C [DEPO-MEDROL, reference compound] | 0.97 |
| CC1(C)O[C@@H]2C[C@H]3[C@@H]4CCC5=CC(=O)C=C[C@]5(C)[C@@]4(F)[C@@H](O)C[C@]3(C)[C@]2(C(=O)CO)O1 [TRIAMCINOLONE ACETONIDE, reference compound] | -1.51 |
| Nc1ccc(S(=O)(=O)c2ccc(N)cc2)cc1 [Dapsone, reference compound] | -0.6 |
| CC(C(=O)O)c1ccc(-c2ccccc2)c(F)c1 (stereo not drawn) [Flurbiprofen, reference compound] | 0.7 |
| Nc1nc(O)c2ncn(COC(CO)CO)c2n1 [Ganciclovir, reference compound] | -0.19 |
| CN(C)[C@@H]1C(O)=C(C(N)=O)C(=O)[C@@]2(O)C(O)=C3C(=O)c4c(O)cccc4[C@@](C)(O)[C@H]3[C@H](O)[C@@H]12 [Oxytetracycline hydrochloride, reference compound] | 0.67 |
| Cc1ccc(C)c(OCCCC(C)(C)C(=O)O)c1 [GEMFIBROZIL, reference compound] | 0.52 |
| C[C@]12C=CC(=O)C=C1CC[C@@H]1[C@@H]2[C@@H](O)C[C@@]2(C)[C@H]1CC[C@]2(O)C(=O)CO [Prednisolone, reference compound] | -1.95 |
| Oc1c(Cl)cc(Cl)c2cccnc12 [Chloroxine, reference compound] | flagged |
| Cn1cnc([N+](=O)[O-])c1Sc1ncnc2nc[nH]c12 [Azathioprine, reference compound] | 0.16 |
| Cn1c(=O)c2[nH]cnc2n(C)c1=O [Theophylline, reference compound] | 2.57 |
| CC(COc1ccccc1)N(CCCl)Cc1ccccc1 (stereo not drawn) [Dibenzyline, reference compound] | -1.18 |
| CNCCCN1c2ccccc2CCc2ccccc21 [Norpramin, reference compound] | -3.45 |
| O=C(NCC1CCCCN1)c1cc(OCC(F)(F)F)ccc1OCC(F)(F)F (stereo not drawn) [Flecainide Acetate, reference compound] | -0.19 |
| CCN(CC)CCOc1ccc(C(=C(Cl)c2ccccc2)c2ccccc2)cc1 [Clomid, reference compound] | -1.33 |
| Oc1c(Cl)cc(Cl)c(Cl)c1Cc1c(O)c(Cl)cc(Cl)c1Cl [Hexachlorophene, reference compound] | flagged |
| CN1CCN2c3ncccc3Cc3ccccc3C2C1 (stereo not drawn) [mirtazapine, reference compound] | 0.65 |
| CC(C)(C)NCC(O)c1cc(O)cc(O)c1 (stereo not drawn) [Terbutaline Sulfate, reference compound] | 0.15 |
| Cc1ccccc1C(OCCN(C)C)c1ccccc1 (stereo not drawn) [Disipal, reference compound] | 0.42 |
| CCCc1cc(=O)[nH]c(=S)[nH]1 [Propylthiouracil, reference compound] | 0.58 |
| CCc1nc(N)nc(N)c1-c1ccc(Cl)cc1 [Pyrimethamine, reference compound] | 0.29 |
| CCC1(c2ccc(N)cc2)CCC(=O)NC1=O (stereo not drawn) [Aminoglutethimide, reference compound] | -0.62 |
| Nc1nc(N)c2nc(-c3ccccc3)c(N)nc2n1 [Triamterene, reference compound] | 0.78 |
| CC1(C)S[C@@H]2[C@H](NC(=O)[C@H](N)c3ccc(O)cc3)C(=O)N2[C@H]1C(=O)O [AMOXICILLIN CRYSTALLINE, reference compound] | -1.06 |
| CC(C)NCC(O)c1cc(O)cc(O)c1 (stereo not drawn) [Metaproterenol, reference compound] | -0.11 |
| NS(=O)(=O)c1cc2c(cc1Cl)N=CNS2(=O)=O [Chlorothiazide, reference compound] | 0.42 |
| CC(=O)[C@@]1(O)CC[C@H]2[C@@H]3C[C@H](C)C4=CC(=O)C=C[C@]4(C)[C@@]3(F)[C@@H](O)C[C@@]21C [Fluorometholone, reference compound] | -0.4 |
